Assay results as given in ChEMBL document CHEMBL4152218, “Novel hydrazide-hydrazone and amide substituted coumarin derivatives: Synthesis, cytotoxicity screening, microarray, radiolabeling and in vivo pharmacokinetic studies” (Eur J Med Chem, 2018).

Experiments:
[1] = Selectivity index, ratio of IC50 for hTERT-RPE1 cells to IC50 for human CCRF-CEM cells; format: toxicity; conditions: hTERT-RPE1 cells versus CCRF-CEM cells, read-out: Ratio IC50
hTERT-BJ [2] = experiment: Cytotoxicity against hTERT-BJ cells at 25 uM after 48 hrs by resazurin dye-based fluorescence assay relative to control; format: cell-based; conditions: human
hTERT-BJ [3] = experiment: Cytotoxicity against hTERT-BJ cells at 6.25 uM after 48 hrs by resazurin dye-based fluorescence assay relative to control; format: cell-based; conditions: human
hTERT-BJ [4] = experiment: Cytotoxicity against hTERT-BJ cells at 50 uM after 48 hrs by resazurin dye-based fluorescence assay relative to control; format: cell-based; conditions: human
TERT-RPE1 [5] = experiment: Cytotoxicity against hTERT-RPE1 cells at 50 uM after 48 hrs by resazurin dye-based fluorescence assay relative to control; format: cell-based; conditions: human, tert-rpe1, 48 h
[6] = Selectivity index, ratio of IC50 for hTERT-RPE1 cells to IC50 for human PANC1 cells; format: toxicity; conditions: hTERT-RPE1 cells versus PANC1 cells, read-out: Ratio IC50
PANC-1 = experiment: Antiproliferative activity against human PANC1 cells after 48 hrs by resazurin dye-based fluorescence assay; format: functional, cell-based; conditions: PANC-1, 48 h
TERT-RPE1 [7] = experiment: Cytotoxicity against hTERT-RPE1 cells at 6.25 uM after 48 hrs by resazurin dye-based fluorescence assay relative to control; format: cell-based; conditions: human, tert-rpe1, 48 h
[8] = Selectivity index, ratio of IC50 for hTERT-BJ cells to IC50 for human HepG2 cells; format: toxicity; conditions: hTERT-BJ cells versus HepG2 cells, read-out: Ratio IC50
TERT-RPE1 [9] = experiment: Cytotoxicity against hTERT-RPE1 cells after 48 hrs by resazurin dye-based fluorescence assay; format: cell-based; conditions: Homo sapiens, RPE-1, 48 h
[10] = Selectivity index, ratio of IC50 for hTERT-RPE1 cells to IC50 for human HepG2 cells; format: toxicity; conditions: hTERT-RPE1 cells versus HepG2 cells, read-out: Ratio IC50
hTERT-BJ [11] = experiment: Cytotoxicity against hTERT-BJ cells at 12.50 uM after 48 hrs by resazurin dye-based fluorescence assay relative to control; format: cell-based; conditions: human, 12.5 µM
hTERT-BJ [12] = experiment: Cytotoxicity against hTERT-BJ cells after 48 hrs by resazurin dye-based fluorescence assay; format: cell-based; conditions: Homo sapiens
[13] = Selectivity index, ratio of IC50 for hTERT-BJ cells to IC50 for human CCRF-CEM cells; format: toxicity; conditions: hTERT-BJ cells versus CCRF-CEM cells, read-out: Ratio IC50
TERT-RPE1 [14] = experiment: Cytotoxicity against hTERT-RPE1 cells at 25 uM after 48 hrs by resazurin dye-based fluorescence assay relative to control; format: cell-based; conditions: human, tert-rpe1, 48 h
CCRF-CEM = experiment: Antiproliferative activity against human CCRF-CEM cells after 48 hrs by resazurin dye-based fluorescence assay; format: functional, cell-based
[15] = Selectivity index, ratio of IC50 for hTERT-BJ cells to IC50 for human PANC1 cells; format: toxicity; conditions: hTERT-BJ cells versus PANC1 cells, read-out: Ratio IC50
TERT-RPE1 [16] = experiment: Cytotoxicity against hTERT-RPE1 cells at 12.50 uM after 48 hrs by resazurin dye-based fluorescence assay relative to control; format: cell-based; conditions: human, tert-rpe1, 48 h, 12.5 µM
HepG2 = experiment: Antiproliferative activity against human HepG2 cells after 48 hrs by resazurin dye-based fluorescence assay; format: functional, cell-based; conditions: HepG2, 48 h

| IC50 (PANC-1) [µM] | IC50 (CCRF-CEM) [µM] | IC50 (HepG2) [µM] | Structure (SMILES) | selectivity ratio [1] | Activity (hTERT-BJ [2]) [%] | Activity (hTERT-BJ [3]) [%] | Activity (hTERT-BJ [4]) [%] | Activity (TERT-RPE1 [5]) [%] | selectivity ratio [6] | Activity (TERT-RPE1 [7]) [%] | selectivity ratio [8] | IC50 (TERT-RPE1 [9]) [µM] | selectivity ratio [10] | Activity (hTERT-BJ [11]) [%] | IC50 (hTERT-BJ [12]) [µM] | selectivity ratio [13] | Activity (TERT-RPE1 [14]) [%] | selectivity ratio [15] | Activity (TERT-RPE1 [16]) [%] |
| --- | --- | --- | --- | --- | --- | --- | --- | --- | --- | --- | --- | --- | --- | --- | --- | --- | --- | --- | --- |
| 26.1 | 13 | 15.8 | O=C(N/N=C/c1ccncc1)c1cc2cc([N+](=O)[O-])ccc2oc1=O | > 3.86 | 6.48 | 0.78 | 7.55 | 13.97 | > 1.92 | 6.97 | > 3.15 | > 50 | > 3.15 | 5.5 | > 50 | > 3.86 | 11.23 | > 1.92 | 10.1 |
| 9.75 | 3.11 | 17.2 | O=C(N/N=C/c1ccncc1)c1cc2ccccc2oc1=O | > 16.1 | 3.9 | 0.6 | 1.73 | 13.73 | > 5.13 | 0.65 | > 2.91 | > 50 | > 2.91 | 1.23 | > 50 | > 16.1 | 12.2 | > 5.13 | 4.08 |
| 17 | 12.9 | 29 | CCOc1ccc2nc(Cl)c(/C=N/NC(=O)c3cc4cc(Br)ccc4oc3=O)cc2c1 | > 3.87 | 2.63 | 0.53 | 2.67 | 20.15 | > 2.94 | 5.41 | > 1.72 | > 50 | > 1.72 | 1.77 | > 50 | > 3.87 | 13.67 | > 2.94 | 12.4 |
| 6.9 | 1.05 | 5.43 | COc1cccc2c1C(=O)c1c(O)c3c(c(O)c1C2=O)C[C@@](O)(C(=O)CO)C[C@@H]3O[C@H]1C[C@H](N)[C@H](O)[C@H](C)O1 [DOXORUBICIN] | < 5.95 |  |  |  |  | < 0.91 |  | < 1.15 | < 6.25 | < 1.15 |  | < 6.25 | < 5.95 |  | < 0.91 |  |
| 11.9 | 14.3 | 15 | Cc1noc(NS(=O)(=O)c2ccc(NC(=O)c3cc4cc([N+](=O)[O-])ccc4oc3=O)cc2)c1C | > 3.49 | 7.18 | 2.53 | 10.27 | 4.06 | > 4.19 | 1.27 | > 3.34 | > 50 | > 3.34 | 4.43 | > 50 | > 3.49 | 4.79 | > 4.19 | 2.5 |
| 13.4 | 17.9 | 10.4 | CCOc1ccc(NC(=O)c2cc3ccccc3oc2=O)cc1 | > 2.79 | 2.82 | 0.59 | 3.08 | 23.27 | > 3.74 | 7.48 | > 4.83 | > 50 | > 4.83 | 2.4 | > 50 | > 2.79 | 22.19 | > 3.74 | 12.77 |
| 0.129 | 17.1 | 19.2 | CCOc1ccc2nc(Cl)c(/C=N/NC(=O)c3cc4ccc(O)cc4oc3=O)cc2c1 | > 2.92 | 2.26 | 3.67 | 5.63 | 13.99 | > 388 | 3.51 | > 2.6 | > 50 | > 2.6 | 1.47 | > 50 | > 2.92 | 8.85 | > 388 | 8.35 |
